# Source: patent US7795305B2, “CDDO-compounds and combination therapies thereof” (Board of Regents, The University of Texas System, priority 2000, dated 2010)
# Structures can show the parent of a compound that is named as a salt. Numbered stars: 1 amine (or outer) side, 2 acyl side, 3 side chain; on linkers, the order of the positions; unused ones are H or OH. Bridge positions count the residues as written; N and C are the ends. Square brackets hold non-standard residues; d marks the D form. Peptide text beside a SMILES is read from it. I, II: the chains in the order shown. Actinocin(9to1) = Cc1c2oc3c(C)ccc(C(=O)[*:1])c3nc-2c(C(=O)[*:2])c(N)c1=O; NMeV = CN[C@H](C(=O)O)C(C)C; Sar = CNCC(=O)O
# How the values were obtained:
# [1] = cited from earlier work
# [2] = cited from earlier work; for terminal half-life: plasma; for peak concentration in plasma: usual clinical doses
# [3] = cited from earlier work; remark: listed apart in the source
# [4] = tested on: HL-60 cells; test: Differentiation by CD11b/CD14 flow cytometry; assay type: cell-based, human; details: 7 days
# [5] = tested on: primary AML samples; test: Annexin V staining of primary AML samples exposed to PPARγ ligands; assay type: cell-based, human; details: 72 hrs; 15d-PGJ2 5 μM; BRL49653, L-805645, GW347845X 25 μM
# Protocol: Annexin V staining. Cells were washed in phosphate-buffered saline (PBS) and resuspended in 100 μl of binding buffer containing Annexin V (Roche Diagnostic Corporation, Indianapolis, Ind.). Cells were analyzed by flow cytometry after the addition of propidium iodide (PI). Annexin V binds to those cells that express phosphatidylserine on the outer layer of the cell membrane, and PI stains the cellular DNA of those cells with a compromised cell membrane. This allows for live cells (unstained with either fluorochrome) to be discriminated from apoptotic cells (stained only with annexin V) and necrotic cells (stained with both annexin and PI).
# [6] = tested on: HL-60 cells; test: Viable cell count of leukemic cells in suspension culture (Trypan blue); assay type: cell-based, human; details: Homo sapiens, HL-60, read-out: concentration required for 50% inhibition of HL-60 cells; PPARγ ligands compared to CDDO
# Protocol: (§1) Suspension culture of leukemic cells. Leukemic cell lines were cultured at a density of 3.0×10^5 cells/mL, and AML mononuclear cells at 5×10^5 cells/mL in the presence or absence of indicated concentrations of CDDO-Me. Appropriate amounts of DMSO (final concentration<0.05%) was included as a control. For cytotoxicity studies, 1 μM ara-C was added to the cultures.
# CDDO. […] The percentage of proliferating cells were analyzed by FCM.
# CDDO-Me. […] Mechanism of growth inhibition was analyzed on cell cycle and apoptosis in HL-60 cells.
# [7] = tested on: HL-60 cells; test: CDDO-Me plus LG-100268 in HL-60 cells (Table 6); assay type: cell-based, human; design: unit not given here; details: 24 hrs
# Protocol: (§2) Finally, the inventors examined if CDDO-Me combined with ATRA would enhance differentiation. HL-60 cells were cultured with of 0.1 μM of CDDO-Me for 72 hrs, alone or in combination with 1 μM ATRA. […] At 48 hrs, 67.4% in CDDO-Me-treated cells and 63.5% in ATRA-treated cells were CD11b+ (compared with 40% in DMSO controls), while 85% of cells were positive when both compounds were given simultaneously. These studies were repeated 3 times and yielded essentially identical results. Next, combined treatment with CDDO-Me and RXR-specific ligand were tested for potentiation of anti-leukemic effects. RXR-specific ligand LG-100268 (Ligand Pharmaceuticals) used at 10, 100 nm and 1 μM enhanced killing of HL-60 cells in a dose-dependent manner (Table 6).
# [8] = tested on: HL-60 cells; test: Cell cycle (S+G2M) with RXR-specific ligand; assay type: cell-based, human; details: 1 μM of LG-100268, combined treatment with CDDO-Me
# Protocol: Cell kinetic and DNA fragmentation studies. The cell cycle kinetics was determined by staining cells with acridine orange for cellular DNA and RNA content followed by flow cytometeric analysis as described. Samples were measured in a FACScan flow cytometer (Becton Dickinson, San Jose, Calif.) using the 488-nm line of a […] argon laser and filter settings for green (530 nm) (DNA) and red (585 nm) (RNA) fluorescence. Ten thousand events were stored in list mode for analysis. The percentage of cells in the “sub G1 peak” defined the proportion of apoptotic cells in the tested populations. […] Cell-cycle kinetics was analyzed using ModFit software (Verity Software House, Inc., Topsham, Me.).
# as §2, with “RXR-specific ligand LG-100268 (Ligand Pharmaceuticals) used at 10, 100 nm and 1 μM enhanced killing of HL-60 cells in a dose-dependent manner (Table 6).” left out
# [9] = tested on: HL-60 cells; test: Differentiation by CD11b/CD14 flow cytometry; assay type: cell-based, human
# Protocol: Immunophenotyping. The PE-conjugated anti-CD11b, FITC-conjugated anti-CD14 monoclonal antibody (mAb) (Becton Dickinson) and PE-conjugated anti-CD95 mAb (PharMingen) were used at a 1/10 dilution.
# Enhancement in cellular differentiation using combinations of CDDO with ATRA were tested. […] Cell differentiation was analyzed by flow cytometry (CD14/CD11b staining). […] These experiments were repeated. […]
# Finally, the inventors examined if CDDO-Me combined with ATRA would enhance differentiation. […] […] Next, combined treatment with CDDO-Me and RXR-specific ligand were tested for potentiation of anti-leukemic effects.
# [10] = tested on: primary AML cells; test: Apoptosis in primary AML samples, subG1 DNA flow cytometry; assay type: cell-based, human; details: ara-C 1 μM, alone or combined
# Protocol: Subjects. Samples of bone marrow or peripheral blood were obtained for in vitro studies from patients with newly diagnosed or recurrent AML with high (>70%) blast count and from patients with myeloid transformation of chronic myeloid leukemia (CML). Informed consent was obtained following institutional guidelines. Mononuclear cells were separated by Ficoll-Hypaque (Sigma Chemical Co) density-gradient centrifugation.
# as §1
# Cell kinetic and DNA fragmentation studies. The cell cycle kinetics was determined by staining cells with acridine orange for cellular DNA and RNA content followed by flow cytometeric analysis as described. […] Ten thousand events were stored in list mode for analysis. The percentage of cells in the “sub G1 peak” defined the proportion of apoptotic cells in the tested populations. […] Cell-cycle kinetics was analyzed using ModFit software (Verity Software House, Inc., Topsham, Me.). […]
compound,measurement,setting,value
"CS(=O)(=O)OCCCCOS(C)(=O)=O [busulfan, 1,4-butanediol dimethanesulfonate]",adults obtaining hematologic remission,[1]; previously untreated chronic myelogenous leukemia,Approximately 90%
Bleomycin,fraction of dose excreted/recovered in the urine,[2]; in vivo,60% to 70
COc1cccc2c1C(=O)c1c(O)c3c(c(O)c1C2=O)C[C@@](O)([C@H](C)O)C[C@@H]3O[C@H]1C[C@H](N)[C@H](O)[C@H](C)O1 [daunorubicinol],elimination half-life,[2]; in vivo,about 27 hr
TRAIL: member of tumor necrosis factor family of cytokines,effect of chemotherapy in mice bearing human colon carcinoma tumors,"[3]; 250-500 μg (Gliniak et al, 1999)",synergistically enhanced effect of chemotherapy
same,survival of tumor-bearing mice,"[3]; daily injections of 200-1000 μg (14 days) (Walczak et al., 1999)",significantly increased survival
"O=C(O)CCCc1ccc(N(CCCl)CCCl)cc1 [Chlorambucil, 4-[bis(2-chlorethyl)amino] benzenebutanoic acid]",oral absorption,[2]; in vivo,rapidly and completely absorbed
same,terminal half-life,[2],~1.5 h
"Cc1c2oc3c(C)ccc(C(=O)N[C@@H]4C(=O)N[C@H](C(C)C)C(=O)N5CCC[C@H]5C(=O)N(C)CC(=O)N(C)[C@@H](C(C)C)C(=O)O[C@@H]4C)c3nc-2c(C(=O)N[C@@H]2C(=O)N[C@H](C(C)C)C(=O)N3CCC[C@H]3C(=O)N(C)CC(=O)N(C)[C@@H](C(C)C)C(=O)O[C@@H]2C)c(N)c1=O [Actinomycin D] (I: T[dV]P[Sar][NMeV] / II: T[dV]P[Sar][NMeV]; ester I:1-I:C, II:1-II:C; linker I:N-II:N via Actinocin(9to1))",elimination half-life,[2]; in vivo,about 36 hr
same,fraction of dose excreted/recovered in the urine,[2]; in vivo,10%
same,fraction secreted/excreted into the bile,[2]; in vivo,Half of the dose
CO[C@@]12[C@H](COC(N)=O)C3=C(C(=O)C(C)=C(N)C3=O)N1C[C@@H]1N[C@@H]12 [Mitomycin],time required to reduce the serum concentration by 50%,[2]; after 30 mg bolus injection,17 min
same,fraction of dose excreted/recovered in the urine,[2]; in vivo,Approximately 10%
"COc1cccc2c1C(=O)c1c(O)c3c(c(O)c1C2=O)C[C@@](O)(C(C)=O)C[C@@H]3O[C@H]1C[C@H](N)[C@H](O)[C@H](C)O1 [Daunorubicin, 5,12-Naphthacenedione, (8S-cis)-8-acetyl-10-[(3-amino-2,3,6-trideoxy-α-L-lyxo-hexanopyranosyl)oxy]-7,8,9,10-tetrahydro-6,8,11-trihydroxy-10-methoxy-, hydrochloride]",oral absorption,[2]; in vivo,Oral absorption is poor
same,elimination half-life,[2]; in vivo,about 19 hr
same,fraction secreted/excreted into the bile,[2]; in vivo,~40%
"CN(CCOc1ccc(CC2SC(=O)NC2=O)cc1)c1ccccn1 (centres unmarked) [BRL49653, rosiglitazone]",CD11b %,[4]; 10 μM (15d-PGJ2 column head prints M),38.9%
same,CD11b %,[4]; 25 μM,48.5%
same,annexin-V-positive cells,[5],7%
same,IC50,[6],25 to 50 µM
CC[C@]1(O)C[C@@H]2CN(CCc3c([nH]c4ccccc34)[C@@](C(=O)OC)(c3cc4c(cc3OC)N(C)[C@H]3[C@@](O)(C(=O)OC)[C@H](OC(C)=O)[C@]5(CC)C=CCN6CC[C@]43[C@@H]65)C2)C1 [Vinblastine],fraction of dose excreted/recovered in the urine,[2]; in vivo,Approximately 15%
same,fraction recovered in the feces after biliary excretion,[2]; in vivo,about 10%
same,peak concentration in plasma,[2],approximately 0.4 mM
"O=NN(CCCl)C(=O)NC1CCCCC1 [Lomustine, 1-(2-chloro-ethyl)-3-cyclohexyl-1 nitrosourea]",radioactivity excreted as degradation products within 24 hours,[2]; oral radioactive lomustine 30 mg/m^2 to 100 mg/m^2,about half of the radioactivity
CC[C@]1(O)C[C@H]2CN(CCc3c([nH]c4ccccc34)[C@@](C(=O)OC)(c3cc4c(cc3OC)N(C=O)[C@H]3[C@@](O)(C(=O)OC)[C@H](OC(C)=O)[C@]5(CC)C=CCN6CC[C@]43[C@@H]65)C2)C1 [Vincristine],terminal half-life,[2],about 24 hours
same,peak concentration in plasma,[2],approximately 0.4 mM
"N[C@@H](Cc1ccc(N(CCCl)CCCl)cc1)C(=O)O [Melphalan, 4-[bis(2-chloroethyl)amino]-L-phenylalanine]",patients with favorable response,"[1]; multiple myeloma, oral administration",about one third to one half
N.N.[Cl][Pt][Cl] [Cisplatin],oral absorption,[2]; in vivo,not absorbed orally
"COc1cccc2c1C(=O)c1c(O)c3c(c(O)c1C2=O)C[C@@](O)(C(=O)CO)C[C@@H]3O[C@H]1C[C@H](N)[C@H](O)[C@H](C)O1 [Doxorubicin, 5,12-Naphthacenedione, (8s-cis)-10-[(3-amino-2,3,6-trideoxy-a-L-lyxo-hexopyranosyl)oxy]-7,8,9,10-tetrahydro-6,8,11-trihydroxy-8-(hydroxyacetyl)-1-methoxy-hydrochloride]",oral absorption,[2]; in vivo,absorbed poorly
same,elimination half-life,[2]; in vivo,about 30 hr
same,fraction of dose excreted/recovered in the urine,[2]; in vivo,a few percent
Cc1cc2c(cc1C1(c3ccc(C(=O)O)cn3)CC1)C(C)(C)CCC2(C)C [LG-100268],Table 6 value: CDDO-Me-induced monocytic differentiation in HL-60 cells,"[7]; CDDO-Me 0, LG-100268 10 nM",6.8
same,Table 6 value: CDDO-Me-induced monocytic differentiation in HL-60 cells,"[7]; CDDO-Me 0, LG-100268 100 nM",6.2
same,Table 6 value: CDDO-Me-induced monocytic differentiation in HL-60 cells,"[7]; CDDO-Me 0, LG-100268 1 μM",6.3
same,percentage of cells in S+G2M decreased by,[8],50%
same,percentage of CD14 (+) live cells (FCM),"[9]; CDDO 0, ligand 1 nM",16.6%
same,percentage of CD14 (+) live cells (FCM),"[9]; CDDO 0, ligand 10 nM",9.6%
same,percentage of CD14 (+) live cells (FCM),"[9]; CDDO 0, ligand 100 nM",9.4%
"Nc1ccn([C@@H]2O[C@H](CO)[C@@H](O)[C@@H]2O)c(=O)n1 [ara-C, reference compound]",apoptosis in AML samples,"[10]; CDDO 1 μM, n=23 (DMSO control 27.7±3.7%)",41.6±4.6%
same,cell killing in AML samples,"[10]; CDDO-Me 1 μM, n=6 (DMSO control 24.9±7.4%)",39.8±8.2%
"CC1=C(/C=C/C(C)=C/C=C/C(C)=C/C(=O)O)C(C)(C)CCC1 [ATRA, all-trans-retinoic acid, reference compound]",patients achieving complete remissions,"[1]; acute promyelocytic leukemia (Warrell et al., 1991)",over 90%
same,CD11b+ cells,"[9]; 48 hrs, CDDO-Me 0.1 μM, ATRA 1 μM, alone or simultaneously (DMSO controls 40%)",63.5%
same,percentage of CD14 (+) live cells (FCM),"[9]; CDDO 0, ligand 1 nM",4%
same,percentage of CD14 (+) live cells (FCM),"[9]; CDDO 0, ligand 10 nM",5.2%
same,percentage of CD14 (+) live cells (FCM),"[9]; CDDO 0, ligand 100 nM",4.4%
